Results reported in US20120115742A1, “METHODS FOR IDENTIFICATION” (Cambridge Enterprise Limited, priority 2009, published 2012).
Like-named read-outs stand apart in the source and are kept apart here.

How the values were obtained:
THP-1 cells = experiment: MCP-1 induced THP-1 cell migration (Transwell/ChemoTx)
Procedure: Leukocyte migration was measured using the 96-well format micro Transwell® assay system from Neuroprobe (Gaithersburg, Md., USA). In principle, this assay consists of two chambers separated by a porous membrane. The chemoattractant is placed in the lower compartment and the cells are placed in the upper compartment.
First, the cell suspension to be placed in the upper compartment was prepared. The THP-1 cells were pelleted by centrifugation (770×g; 4 mins) and washed with Geys Balanced Salt Solution with 1 mg/ml BSA (GBSS+BSA). This wash was then repeated, and the cells re-pelleted before being resuspended in a small volume of GBSS+BSA for counting, for example using a standard haemocytometer.
This ensured that there were 100,000 THP-1 cells in each 25 μl of the solution to be placed in the upper chamber of the plate.
To the third pot, GBSS+BSA plus vehicle as appropriate was added so that the volumes in three pots are equal, acting as a control.
Next, the chemoattractant solution to be placed in the lower compartment was prepared. […] This solution was divided into three pots, as for the cell suspension. To one pot, the BSCI was added to the same final concentration as was added to the cell suspension, in the second pot the BSCI and the sstr2 antagonist were both added at the same concentration as previously added to the cell suspension, while to the remaining pot GBSS+BSA plus vehicle as appropriate was added so that the volumes in the three pots were equal.
Once the chemoattractant solutions for the lower wells and cell solutions for the upper chambers were prepared, the migration chamber was assembled. 29 μl of the appropriate chemoattractant solution was placed into the lower well of the chamber. Assays were performed with at least triplicate determinations of each condition. Once all the lower chambers were filled, the porous membrane was applied to the chamber in accordance with the manufacturer's instructions. Finally, 25 μl of the appropriate cell solution was applied to each upper chamber. A plastic lid was placed over the entire apparatus to prevent evaporation.
The assembled chamber was incubated at 37° C., 5% CO2, for 2 hours.
At the end of the incubation, the liquid cell suspension was gently removed from the upper chamber, 20 μl of ice-cold 20 mM EDTA in PBS was added to the upper chamber, and the apparatus was incubated at 4° C. for 15 mins. This procedure caused any cells adhering to the underside of the membrane to fall into the lower chamber.
After this incubation the filter was carefully flushed with GBSS+BSA to wash off the EDTA, and then the filter was removed.
The number of cells migrated into the lower chamber under each condition can then be determined by a number of methods, including direct counting, labelling with fluorescent or radioactive markers or through the use of a vital dye. Typically, we utilised the vital dye MTT. 3 μl of stock MTT solution were added to each well, and then the plate was incubated at 37° C. for 1-2 hours during which time dehydrogenase enzymes within the cells converted the soluble MTT to an insoluble blue formazan product that could be quantified spectrophotometrically.
In parallel, an 8-point standard curve was set up. Starting with the number of cells added to each upper chamber (100,000) and going down in 2-fold serial dilutions in GBSS+BSA, the cells were added to a plate in 25 with 3 μl of MTT stock solution added. The standard curve plate was incubated along side the migration plate. At the end of this incubation, the liquid was carefully removed from the lower chambers, taking care not to disturb the precipitated formazan product.
The MCP-1 stimulated migration was determined by subtracting the average number of cells that reached the lower compartment in wells where no MCP-1 was added from the average number of cells that reached the lower compartment where MCP-1 was present at 25 ng/ml.

TNF-alpha = experiment: Sub-lethal endotoxemia model, serum TNF-alpha after LPS; assay type: in vivo, mouse; settings: dose-dependent; BN83250 s.c., valerolactam oral gavage
Procedure: We selected the sub-lethal endotoxemia model in mouse, because this has been well characterised in our laboratory (see for example Fox et al. (2002) J. Med. Chem. 45:360-70; Fox et al. (2005) J. Med. Chem. 48:867-74). The extent of systemic inflammation in response to a single intraperitoneal injection of bacterial lipopolysaccharide (LPS) can be estimated by measuring serum TNF-alpha 2 hours post challenge.
Methods: Mice (CD1 strain; adult males; 6 per group) were treated with BSCI (in an appropriate vehicle) or with vehicle alone by an appropriate route. […] Simultaneously, one set of mice at each BSCI concentration received BIM 23627 at 4 mg/animal (120 mg/kg) by sub-cutaneous injection (a treatment condition known to suppress classical sstr2-mediated signalling, such as GH release, in rats; Tulipano et al. (2002) 143:1218-24). Between 30 mins and 1 hour after dosing (a period when a maximal plasma concentration of BSCI has been achieved), the inflammatory challenge was elicited by intraperitoneal injection of 750 μg of LPS (Sigma; L4130 lot#024K4077; 900,000 EU/mg).
After a further 2 hours, the animals were sacrificed by CO2 asphyxiation, and blood was drawn by cardiac puncture. Serum was prepared by conventional methods, and the level of TNF-alpha in serum was measured using an ELISA (R&D Systems; Murine Quantikine code# MTA00) performed in accordance with the manufacturer's instructions.

Panc-2H4 cells = experiment: Human Panc-2H4 insulin suppression assay; assay type: cell-based
Source text: Two different assays for “classical” sstr2 functions were adopted: (1) cultured foetal rat pituitary cells secreted growth hormone which is inhibited by sstr2 agonists in a dose-dependent fashion and (2) selected glucose-sensitive sub-clones of the human Panc-1 cell line secrete insulin which is inhibited by sstr2 agonists in a dose-dependent fashion.
Glucose-sensitive sub-clones of the human Panc-1, a cell line derived from a pleiomorphic epithelioid carcinoma of the exocrine pancreas, were obtained essentially as described by Hamil et al. (2008) Biomed. Sci. Instrum. 44:441-6. Briefly, Panc-1 cells were subcultured in 24 well plates, and the medium was supplemented with an additional 5% glucose. […] The resulting sub-lines were then tested for glucose sensitivity by preparing wells of a 96-well plate (5×10^4 cells per well) which were then exposed to cultured medium containing a range of glucose concentrations (low glucose DMEM, DMEM, DMEM+1% glucose, DMEM+2.5% glucose and DMEM+5% glucose). After 24 hrs incubation, the conditioned medium was collected and assayed for insulin secretion by ELISA (Linco; cat# EZHI-14K) in accordance with the manufacturer's instructions. […] Further 96 well plates were prepared using Panc-2H4 (5×10^4 cells per well) in DMEM. After 24 hrs, the medium was switched to DMEM+5% glucose containing various test agents at various concentrations (triplicate wells per condition). After a further 24 hrs, the conditioned medium was harvested and the concentration of insulin was determined by ELISA as described above.
Results were reported as the mean SD, expressed as the fold change from cells in the presence of vehicle only.

Jurkat-D3B cells = experiment: SDF-1α induced migration of Jurkat-D3B cells expressing sstr2; assay type: cell-based, human; settings: Jurkat-D3B versus parental Jurkat
Procedure: Methods: Total mRNA was prepared from Panc-1 cells (a human pancreas cell line which is well known to express high levels of sstr2) using the RNAqueous 4PCR kit (Ambion, Cat code #1914) in accordance with the manufacturer's instructions. The mRNA was then reverse transcribed (using the RETROscript kit; Ambio) to yield a cDNA preparation. A full length cDNA of the sstr2 gene was then obtained by PCR (using a Peltier PTC-200 thermal cycler using the following cycle times and conditions: 94° C. for 2 min, followed by 30 cycles of 94° C., for 30 sec, 55° C. for 30 sec, 72° C. for 1 min and finally 72° C. for 10 min), and isolated by preparative gel electrophoresis. The sequence of the sstr2 cDNA was confirmed by sequencing. The sstr2 cDNA was treated with EcoRI and Xhol to generate sticky ends, which allowed directional cloning into the polylinker of the plasmid pcDNA3.1+ (Invitrogen) followed by ligation ([…] ligation reactions were run with 400 T4 DNA ligase (New England Biolabs) and the maximal amounts of DNA with an insert:plasmid ratio of 3:1 in ligase buffer incubated overnight at 13° C.). […]
A number of individual cell lines were obtained in this way, which expressed significant levels of sstr2 on the cell surface, detected by flow cytometry using the human-sstr2 antibody (Sigma, 50694; see Example 3 for details of the flow cytometry protocol used). […]

**Q.** Which results are given for “(S)-3-(2′,2′-dimethyldodecanoyl)amino-caprolactam [BN83250]”?
**A.** “Classical”:“BSCI” potency ratio, Human (THP-1 cells; THP-1 migration ED50 versus Panc-2H4 insulin ED50): <0.00009; Human chemokine-induced THP-1 migration assay Max effect (THP-1 cells; Table 3): 100%; Chemokine-induced THP-1 cell migration assay Max Effect (THP-1 cells; Table 5): 100%; RATIO (THP-1 cells; Table 5, migration ED50 versus insulin ED50): <0.00009; inhibition of LPS-induced systemic inflammation (TNF-alpha): dramatically inhibited; EC50 (Panc-2H4 cells; Table 3, read-out: Human Panc-2H4 insulin suppression assay ED50): 1 µM; Human Panc-2H4 insulin suppression assay Max effect (Panc-2H4 cells; Table 3, suppression compared to vehicle): 28%; Panc-2H4 insulin suppression assay Max Effect (Panc-2H4 cells; Table 5): 28%; EC50 (Panc-2H4 cells; Table 5, read-out: Panc-2H4 insulin suppression assay (“classical” target) ED50): 1 µM; inhibition of insulin secretion by Panc-2H4 (Panc-2H4 cells; highest concentrations tested): None of these agents inhibited insulin secretion; increase in BSCI sensitivity by ectopic expression of sstr2 (Jurkat-D3B cells): more than 100 fold
